# Values of other authors in US11957711B2 (priority 2021, dated 2024).
# How the values were obtained:
# [1] = parts per million in gas; gas generated from HTH and carbon dioxide
# [2] = test system: germs
SMILES,maximum allowable concentration [1],Solubility in water [g/100 g],Solubility in other solvent (CCL4),time to kill the germs [2]
"ClOCl [CL2O, Dichlorine monoxide]",around 1.25 ppm,143,soluble in CCL4,–
"OCl [HCLO, Hypochlorous acid]",–,–,–,a few seconds
